Measurements published in patent US8088806B2 (Achillion Pharmaceuticals, Inc., priority 2005, dated 2012).
pEC50: −log10 of the molar value.

tested on: HCV replicon; assay: Replicon based assay of HCV replication inhibition (NPT ELISA); assay type: cell-based, Hepatitis C virus; conditions: Hepatitis C virus, replicon based assay of HCV replication inhibition; Table IV; read-out: Activity
Outline: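 NPT (neomycin phosphotransferase) content, proportional to replicon replication, quantified by capture ELISA on day four. Before that, replicon-bearing Huh-7 cells in G418-free screening medium were exposed three days at 37° C to compound, typically six doses from 10 to 0.03 micromolar, with equal DMSO across wells.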

`CCCCCCCCOc1ccc(Nc2nc(-c3csc4nccn34)cs2)cc1C(F)(F)F` [compound 807, N-(3-(trifluoromethyl)-4-(octyloxy)phenyl)-4-(imidazo[2,1-b]thiazol-3-yl)thiazol-2-amine] and `CCCCCCCCOc1ccc(Nc2nc(-c3ccsc3Cl)cs2)cc1C(F)(F)F` [compound 812, 4-(2-chlorothiophen-3-yl)-N-(3-(trifluoromethyl)-4-(octyloxy)phenyl)thiazol-2-amine] cannot be ordered by pEC50: over 6.00 for the first, over 6.00 for the second.

`CCCCCCCCOc1ccc(Nc2nc(C(=O)CSC3=NC(=O)CC(=O)N3)cs2)cc1C(F)(F)F` [compound 808, 2-(2-(2-(3-(trifluoromethyl)-4-(octyloxy)phenylamino)thiazol-4-yl)-2-oxoethylthio)pyrimidine-4,6(1H,5H)-dione] and `CCCCCCCCOc1ccc(Nc2nc(-c3c[nH]nc3C#N)cs2)cc1C(F)(F)F` [compound 809, 4-(2-(3-(trifluoromethyl)-4-(octyloxy)phenylamino)thiazol-4-yl)-1H-pyrazole-3-carbonitrile] cannot be ordered by pEC50: over 6.00 for the first, over 6.00 for the second.

`CCCCCCCCOc1ccc(Nc2nc(-c3cnc(N)nc3)cs2)cc1C(F)(F)F` [compound 810, 5-(2-(3-(trifluoromethyl)-4-(octyloxy)phenylamino)thiazol-4-yl)pyrimidin-2-amine] and `CCCCCCCCOc1ccc(Nc2nc(-c3cnc(O)nc3)cs2)cc1C(F)(F)F` [compound 840, 5-(2-(3-(trifluoromethyl)-4-(octyloxy)phenylamino)thiazol-4-yl)pyrimidin-2-ol] cannot be ordered by pEC50: over 6.00 for the first, over 6.00 for the second.

`CCCCCCCCOc1ccc(Nc2nc(-c3cnc[nH]3)cs2)cc1C(F)(F)F` [compound 811, N-(3-(trifluoromethyl)-4-(octyloxy)phenyl)-4-(1H-imidazol-5-yl)thiazol-2-amine] and `CCCCCCCOc1ccc(Nc2nc(-c3cccnc3)cs2)cc1C(F)(F)F` [compound 823, N-(3-(trifluoromethyl)-4-(heptyloxy)phenyl)-4-(pyridin-3-yl)thiazol-2-amine] cannot be ordered by pEC50: over 6.00 for the first, over 6.00 for the second.

First: CCCCCCCCOc1ccc(Nc2nc(-c3cccnc3C#N)cs2)cc1C(F)(F)F [compound 813, 3-(2-(3-(trifluoromethyl)-4-(octyloxy)phenylamino)thiazol-4-yl)pyridine-2-carbonitrile]
Second: CCCCCCCCOc1ccc(Nc2nc(-c3cccnc3C(N)=O)cs2)cc1C(F)(F)F [compound 814, 3-(2-(3-(trifluoromethyl)-4-(octyloxy)phenylamino)thiazol-4-yl)pyridine-2-carboxamide]
The pEC50 of the first is higher: over 6.00 for the first, 5.00 to 6.00 for the second. The first is the more potent here.

First: c1cncc(-c2csc(Nc3nc(-c4ccc5ccccc5c4)cs3)n2)c1 [compound 815, 4-(naphthalen-2-yl)-N-(4-(pyridin-3-yl)thiazol-2-yl)thiazol-2-amine]
Second: FC(F)(F)c1cc(Nc2nc(-c3cccnc3)cs2)ccc1OCCOc1ccccc1 [compound 848, N-(4-(2-phenoxyethoxy)-3-(trifluoromethyl)phenyl)-4-(pyridin-3-yl)thiazol-2-amine]
The pEC50 of the first is lower: 5.00 to 6.00 for the first, over 6.00 for the second.

`COc1ccc(Nc2nc(-c3cccnc3)cs2)cc1S(=O)(=O)Nc1ccc(Cl)cc1` [compound 818] and `CCN(CC)S(=O)(=O)c1cc(Nc2nc(-c3cccnc3)cs2)ccc1Cl` [compound 819] cannot be ordered by pEC50: under 5.00 for the first, under 5.00 for the second.

`CCN(CC)C(=O)c1ccc(Nc2nc(-c3cccnc3)cs2)cc1` [compound 820, 4-(4-(pyridin-3-yl)thiazol-2-ylamino)-N,N-diethylbenzamide] and `CN(C)C(=O)c1ccc(Nc2nc(-c3cccnc3)cs2)cc1` [compound 821, 4-(4-(pyridin-3-yl)thiazol-2-ylamino)-N,N-dimethylbenzamide] cannot be ordered by pEC50: under 5.00 for the first, under 5.00 for the second.

`CCCCCCC=Cc1ccc(Nc2nc(-c3cccnc3)cs2)cc1C(F)(F)F` [compound 822, N-(3-(trifluoromethyl)-4-(oct-1-enyl)phenyl)-4-(pyridin-3-yl)thiazol-2-amine] and `CCCCCCCCc1ccc(Nc2nc(-c3cccnc3)cs2)cc1C(F)(F)F` [compound 825, N-(3-(trifluoromethyl)-4-octylphenyl)-4-(pyridin-3-yl)thiazol-2-amine] cannot be ordered by pEC50: over 6.00 for the first, over 6.00 for the second.

`CC(C)CCCOc1ccc(Nc2nc(-c3cccnc3)cs2)cc1C(F)(F)F` [compound 824, N-(4-(4-methylpentyloxy)-3-(trifluoromethyl)phenyl)-4-(pyridin-3-yl)thiazol-2-amine] and `CCN(CCOc1ccc(Nc2nc(-c3cccnc3)cs2)cc1C(F)(F)F)c1ccccc1` [compound 847] cannot be ordered by pEC50: over 6.00 for the first, over 6.00 for the second.

`CCCCCCCCc1ccc(Nc2nc(-c3cnc(OC)nc3)cs2)cc1C(F)(F)F` [compound 826, N-(3-(trifluoromethyl)-4-octylphenyl)-4-(2-methoxypyrimidin-5-yl)thiazol-2-amine] and `CCCCCCCCOc1ccc(Nc2nc(-c3cnc(Cl)c(C)c3)cs2)cc1C(F)(F)F` [compound 842, 4-(6-chloro-5-methylpyridin-3-yl)-N-(3-(trifluoromethyl)-4-(octyloxy)phenyl)thiazol-2-amine] cannot be ordered by pEC50: over 6.00 for the first, over 6.00 for the second.

Compared with `CC(C)=CCC/C(C)=C/COc1ccc(Nc2nc(-c3ccc(F)cc3)cs2)cc1C(F)(F)F` [compound 827, N-(4-((E)-3,7-dimethylocta-2,6-dienyloxy)-3-(trifluoromethyl)phenyl)-4-(4-fluorophenyl)thiazol-2-amine], `COc1ncc(-c2csc(Nc3ccc(OCCCCc4ccc(C)cc4)c(C(F)(F)F)c3)n2)cn1` [compound 829, N-(4-(4-p-tolylbutoxy)-3-(trifluoromethyl)phenyl)-4-(2-methoxypyrimidin-5-yl)thiazol-2-amine] is higher in pEC50: under 5.00 for the first, over 6.00 for the second. The second is the more potent here.

`COc1ncc(-c2csc(Nc3ccc(OCCCCc4ccccc4)c(C(F)(F)F)c3)n2)cn1` [compound 828, N-(4-(4-phenylbutoxy)-3-(trifluoromethyl)phenyl)-4-(2-methoxypyrimidin-5-yl)thiazol-2-amine] and `COc1ncc(-c2csc(Nc3ccc(OCCCc4ccccc4)c(C(F)(F)F)c3)n2)cn1` [compound 831, N-(4-(3-phenylpropoxy)-3-(trifluoromethyl)phenyl)-4-(2-methoxypyrimidin-5-yl)thiazol-2-amine] cannot be ordered by pEC50: over 6.00 for the first, over 6.00 for the second.

First: COc1ncc(-c2csc(Nc3ccc(OCCCc4cccnc4)c(C(F)(F)F)c3)n2)cn1 [compound 830, N-(4-(3-(pyridin-3-yl)propoxy)-3-(trifluoromethyl)phenyl)-4-(2-methoxypyrimidin-5-yl)thiazol-2-amine]
Second: Cc1sc(Nc2ccc(OCCCc3cccnc3)c(C(F)(F)F)c2)nc1-c1cccnc1 [compound 846, N-(4-(3-(pyridin-3-yl)propoxy)-3-(trifluoromethyl)phenyl)-5-methyl-4-(pyridin-3-yl)thiazol-2-amine]
The pEC50 of the first is higher: 5.00 to 6.00 for the first, under 5.00 for the second. The first is the more potent here.

First: CCCCCOc1ccc2nc(NC(=O)c3cccnc3)sc2c1 [compound 832, N-(6-(pentyloxy)benzo[d]thiazol-2-yl)nicotinamide]
Second: CCCCCCCCOc1ccc(Nc2nc(-c3cccnc3)c(C)s2)cc1C(F)(F)F [compound 836, N-(3-(trifluoromethyl)-4-(octyloxy)phenyl)-5-methyl-4-(pyridin-3-yl)thiazol-2-amine]
The pEC50 of the first is lower: under 5.00 for the first, over 6.00 for the second.

`CCCCCCCN(C)Cc1ccc(Nc2nc(-c3cccnc3)cs2)cc1C(F)(F)F` [compound 833, N-(4-((heptyl(methyl)amino)methyl)-3-(trifluoromethyl)phenyl)-4-(pyridin-3-yl)thiazol-2-amine] and `CCCCCCCCOc1ccc(Nc2nc(-c3ccc(CN)nc3)cs2)cc1C(F)(F)F` [compound 844, 4-(6-(aminomethyl)pyridin-3-yl)-N-(3-(trifluoromethyl)-4-(octyloxy)phenyl)thiazol-2-amine] cannot be ordered by pEC50: over 6.00 for the first, over 6.00 for the second.

Going from `c1cncc(-c2csc(Nc3nc(CN4CCCCC4)cs3)n2)c1` [compound 834, 4-((piperidin-1-yl)methyl)-N-(4-(pyridin-3-yl)thiazol-2-yl)thiazol-2-amine] to `Cc1sc(Nc2ccc(OCCCC3CCCC3)c(C(F)(F)F)c2)nc1-c1cccnc1` [compound 837, N-(4-(3-cyclopentylpropoxy)-3-(trifluoromethyl)phenyl)-5-methyl-4-(pyridin-3-yl)thiazol-2-amine], the pEC50 rises from under 5.00 to over 6.00.

`Cc1sc(Nc2ccc(OCCCCc3ccccc3)c(C(F)(F)F)c2)nc1-c1cccnc1` [compound 838, N-(4-(4-phenylbutoxy)-3-(trifluoromethyl)phenyl)-5-methyl-4-(pyridin-3-yl)thiazol-2-amine] and `Cc1sc(Nc2ccc(OCCCc3ccccc3)c(C(F)(F)F)c2)nc1-c1cccnc1` [compound 839, N-(4-(3-phenylpropoxy)-3-(trifluoromethyl)phenyl)-5-methyl-4-(pyridin-3-yl)thiazo1-2-amine] cannot be ordered by pEC50: over 6.00 for the first, over 6.00 for the second.

`CCCCCCCCOc1ccc(Nc2nc(-c3ccc(OC)nn3)cs2)cc1C(F)(F)F` [compound 841, N-(3-(trifluoromethyl)-4-(octyloxy)phenyl)-4-(6-methoxypyridazin-3-yl)thiazol-2-amine] and `CCCCCCCCOc1ccc(Nc2nc(-c3ccc(CC(=O)O)s3)cs2)cc1C(F)(F)F` [compound 849, 2-(5-(2-(3-(trifluoromethyl)-4-(octyloxy)phenylamino)thiazol-4-yl)thiophen-2-yl)acetic acid] cannot be ordered by pEC50: over 6.00 for the first, over 6.00 for the second.

`CCCCCCCCOc1ccc(Nc2nc(-c3ccc(CNC(=O)OC(C)(C)C)nc3)cs2)cc1C(F)(F)F` [compound 843, tert-butyl (5-(2-(3-(trifluoromethyl)-4-(octyloxy)phenylamino)thiazol-4-yl)pyridin-2-yl)methylcarbamate] and `O=C(O)Cc1ccc(-c2csc(Nc3ccc(OCCCC4CCCC4)c(C(F)(F)F)c3)n2)s1` [compound 850, 2-(5-(2-(4-(3-cyclopentylpropoxy)-3-(trifluoromethyl)phenylamino)thiazol-4-yl)thiophen-2-yl)acetic acid] cannot be ordered by pEC50: over 6.00 for the first, over 6.00 for the second.

`Cc1ccc(CCCCOc2ccc(Nc3nc(-c4cccnc4)c(C)s3)cc2C(F)(F)F)cc1` [compound 845, N-(4-(4-p-tolylbutoxy)-3-(trifluoromethyl)phenyl)-5-methyl-4-(pyridin-3-yl)thiazol-2-amine] was tested, and the pEC50 was over 6.00.
